Results: patent US9642874B2, “Compositions of selenoorganic compounds and methods of use thereof” (Alltech, Inc., priority 2014, dated 2017)

Tests used:
Foxo4 = test: Western blot of Foxo4 / pFoxo4T28 in AML-12 cells; type: cell-based, mouse; details: individual compound, 150 ppb, serum-containing media, 6 hours and 24 hours
Description: (§1) For the studies of protein expression, AML-12 cells were amplified in ITS, Dex and FBS-containing DMEM/F12 media, and cultured on 6-well (3.33×10^5 cells/well) plates in 10% FBS ITS-free DMEM/F12 media with or without Dex overnight. These cells were treated with control (water) or various compounds in either serum containing (10% FBS ITS-free DMEM/F12 media supplemented with Dex) or serum-free (ITS/Dex-free DMEM/F12 media) for 6 hours and 24 hours. In addition, human neuroblast IMR-32 cells were cultured in 10% FBS EMEM media and then treated with control (water), selenium compounds and their sulfur analogs in the same serum-containing media for 6 hours and 24 hours.
(§2) AML-12 liver cells or IMR-32 neuronal cells were seeded on 6-well plates, and then treated with vehicle and various compounds for 6 hours and 24 hours, as described herein. […] Protein levels in the supernatant of these cell lysates were determined using the Pierce Micro-BCA protein assay kit (Thermo Scientific-Piece Biotechnology, Rockford, Ill.) according to the manufacturer's protocol. […]
(§3) All primary antibodies except Actb (Li-COR, Lincoln, Nebr.), Elf2bε and pElf2bε (Abcam, Cambridge, Mass.) were purchased from Cell Signaling Inc. Positive signals on the membrane blots were detected using the Amersham's enhanced chemiluminescence Western Blotting Prime Detection reagents (GE healthcare Lifescience, Pittsburgh, Pa.). Images of luminescence signals on the membrane blots were captured using the LI-COR Odyssey Fc Image system (Lincoln, Nebr.). […] Protein band densities in the Western blots were determined using the Li-COR Image studio software or NIH ImageJ software and then normalized by Actb level in each sample. […]
(§4) To determine if the combination of Compounds CDE can regulate FOXO phosphorylation in the liver, AML-12 cells were treated with control, and 150 ppb of selenium Compounds CDE, and their sulfur analogs, 150 ppb of Compounds HIJ, in serum- and Dex-containing media but without ITS for 6 hours. […] Quantitative data of protein expression in Western blots are presented as mean±SEM of 3 samples. […]

Foxo3 = test: Western blot of Foxo3 / pFoxo3T32 in AML-12 cells; type: cell-based, mouse; details: individual compound, 150 ppb, serum-containing media, 6 hours and 24 hours
Description: as §1, §2, §3, §4

SMILES	pFoxo4T28 protein levels (Foxo4)	pFoxo3T32 protein levels (Foxo3)
C[Se]C[C@H](NC(=O)CC[C@H](N)C(=O)O)C(=O)O [Compound E, γ-L-glutamyl-Se-methyl-L-selenocysteine]	No change	No change
Nc1ncnc2c1ncn2[C@@H]1O[C@H](C[Se]CC[C@@H](N)C(=O)O)C(O)C1O (stereo partly drawn) [Compound D, 5′-Selenoadenosyl homocysteine]	No change	No change
C[Se]C[C@H]1O[C@@H](n2cnc3c(N)ncnc32)C(O)C1O (stereo in doubt) [Compound C, 5′-Methylselenoadenosine]	No change	No change
